Data taken from patent US20250361243A1, “Compounds and Pharmaceutical Compositions Useful for Managing Sickle Cell Disease and Conditions Related Thereto” (Emory University, priority 2022, published 2025).
Read-outs that look alike come from different tables or passages of the source.

Columns and labels:
Assay type in all cases: cell-based
[1] = test system: Human RBC; test: Imaging-based anti-sickling assay, human RBC
Text: (§1) An imaging assay utilizing automated microscopy and customized algorithms was used to detect sickled or normal (round shaped) RBCs. The assay is capable of discovering anti-sickling agents with physiologically relevant oxygen affinity. The assay uses native mouse or human RBCs, enabling one to identify a broader spectrum of agents and is not restricted to compounds that require direct interaction (e.g., with purified hemoglobin). Thus, in contrast to hemoglobin binding assays, this approach allows for the identification of additional classes of anti-sickling agents that modulate pathways affecting RBC sickling. Compounds resulting from the experiments are also useful for investigating SCD pathophysiology.
(§2) The imaging-based protocol that can distinguish sickled vs normal (round) phenotype of intact RBCs originating from genetically engineered mice expressing human hemoglobin genes (the HbSS Townes knock-in sickle mice), or 2) SCD patients. The imaging was conducted using a BioTek Cytation™ cell imaging multimode reader and software to detect sickled or normal round-shaped phenotype of RBCs with negative control (vehicle treatment) and a positive control, 5-hydroxymethylfurfural (5-HMF).

[2] = test system: ss Mouse RBC; test: Imaging-based anti-sickling assay, ss mouse RBC; settings: read-out: Anti-sickling activity (EC50; μM) ss Mouse RBC
Text: as §1, §2

[3] = test system: RBCs; test: Anti-sickling activity normalized to 5 mM 5-HMF (Table 2); settings: for EC50: read-out: EC50 for anti-sickling activity (uM, normalized to positive control of 5 mM 5-HMF)
Text: as §1, §2

[4] = Homo sapiens; read-out: Anti-sickling activity (EC50; μM) Human RBC

EC50 [1, 4] [µM]	EC50 [2] [µM]	Compound	other results
< 100	< 100	Cc1cc(Cl)cc(-c2ccccc2)c1N1C(=O)C=CC1=O [HDYB-8, 1-(5-chloro-3-methyl-[1,1′-biphenyl]-2-yl)-1H-pyrrole-2,5-dione]	
41	13	O=C1C=CC(=O)N1c1ccc(I)cc1 [HDYB-22, 1-(4-iodophenyl)-1H-pyrrole-2,5-dione]	
		COc1ccc(Cl)cc1NC(=O)Nc1nc2c(s1)CN(S(=O)(=O)N(C)C)CC2 [SCAS2_01, 2-(3-(5-chloro-2-methoxyphenyl)ureido)-N,N-dimethyl-6,7-dihydrothiazolo[5,4-c]pyridine-5 (4H)-sulfonamide]	EC50 [3]: 1.1 µM
11	10	O=C1OCc2ccc(N3C(=O)C=CC3=O)cc21 [HDYB-27, 1-(3-oxo-1,3-dihydroisobenzofuran-5-yl)-1H-pyrrole-2,5-dione]	
32	37	Cc1ccc(N2C(=O)C=CC2=O)cc1 [HDYB-21, 1-(p-tolyl)-1H-pyrrole-2,5-dione]	
12	10	O=C1C=CC(=O)N1c1cc(Cl)c(N2C(=O)C=CC2=O)cc1Cl [HDYB-25, 1,1′-(2,5-dichloro-1,4-phenylene)bis(1H-pyrrole-2,5-dione)]	
< 100	< 100	O=C1C=C(Nc2ccccc2)C(=O)N1c1ccccc1 [HDYB-11]	
57	78	O=C1C=CC(=O)N1c1cccc(N2C(=O)C=CC2=O)c1 [HDYB-10]	
23	27	O=C1C=CC(=O)N1c1ccc(Br)c(Cl)c1 [HDYB-14, 1-(4-bromo-3-chlorophenyl)-1H-pyrrole-2,5-dione]	
< 100	< 100	O=C1C=CC(=O)N1c1cnc2ccccc2c1 [HDYB-17]	
		CC(C)(C)SCC(O)Cn1c2ccc(Cl)cc2c2cc(Cl)ccc21 (stereo not shown) [SCAS2_61, 1-(tert-butylthio)-3-(3,6-dichloro-9H-carbazol-9-yl) propan-2-ol]	EC50 [3]: 3.12 µM
78	29	O=C1C=CC(=O)N1CCCCN1C(=O)C=CC1=O [HDYB-9]	
		Nc1nc2ccc(S(=O)(=O)N3CCCCC3)cc2s1 [SCAS2_02, 6-(piperidin-1-ylsulfonyl)benzo[d]thiazol-2-amine]	EC50 [3]: 25.4 µM
< 100	< 100	Cc1ccc(N2C(=O)C=CC2=O)nc1 [HDYB-16]	
		CCC(C)NCC(O)Cn1c2ccc(Cl)cc2c2cc(Cl)ccc21 (stereo not shown) [SCAS2-A14, 1-(sec-butylamino)-3-(3,6-dichloro-9H-carbazol-9-yl) propan-2-ol]	Anti-sickling activity (%, normalized to positive control of 5 mM 5-HMF) ([3]; 10 uM): 24.26%; Anti-sickling activity (%, normalized to positive control of 5 mM 5-HMF) ([3]; 33 uM): 78.71%; Anti-sickling activity (%, normalized to positive control of 5 mM 5-HMF) ([3]; 100 uM): 131.87%
17	21	O=C1C=CC(=O)N1c1ccccc1 [HDYB-5, 1-phenyl-1H-pyrrole-2,5-dione]	
< 100	< 100	O=C1C=CC(=O)N1c1cccnc1 [HDYB-15]	
		CC(C)CCNCC(O)Cn1c2ccc(Br)cc2c2cc(Br)ccc21 (stereo not shown) [SCAS2-A13, 1-(3,6-dibromo-9H-carbazol-9-yl)-3-(isopentylamino) propan-2-ol]	Anti-sickling activity (%, normalized to positive control of 5 mM 5-HMF) ([3]; 10 uM): 71.04%; Anti-sickling activity (%, normalized to positive control of 5 mM 5-HMF) ([3]; 33 uM): 90.158%; Anti-sickling activity (%, normalized to positive control of 5 mM 5-HMF) ([3]; 100 uM): 35.39%
12	12	O=C1C=CC(=O)N1c1cccc(C(F)(F)F)c1 [HDYB-3, 1-(3-(trifluoromethyl)phenyl)-1H-pyrrole-2,5-dione]	
19	15	Cc1ccc(N2C(=O)C=CC2=O)cc1Cl [HDYB-2, 1-(3-chloro-4-methylphenyl)-1H-pyrrole-2,5-dione]	
		CC(C)CCNCC(O)Cn1c2ccc(Cl)cc2c2cc(Cl)ccc21 (stereo not shown) [SCAS2-A2, 1-(3,6-dichloro-9H-carbazol-9-yl)-3-(isopentylamino) propan-2-ol]	Anti-sickling activity (%, normalized to positive control of 5 mM 5-HMF) ([3]; 10 uM): 21.45%; Anti-sickling activity (%, normalized to positive control of 5 mM 5-HMF) ([3]; 33 uM): 25.26%; Anti-sickling activity (%, normalized to positive control of 5 mM 5-HMF) ([3]; 100 uM): 213.95%
26	22	O=C1C(=O)N(Cc2ccc(C(F)(F)F)cc2)c2ccc(Cl)cc21 [HDYB-20]	
13	9	O=C1C=CC(=O)N1c1ccc2c(c1)CCO2 [HDYB-26, 1-(2,3-dihydrobenzofuran-5-yl)-1H-pyrrole-2,5-dione]	
14	11	O=C1C=CC(=O)N1c1cccc(F)c1 [HDYB-24, 1-(3-fluorophenyl)-1H-pyrrole-2,5-dione]	
25	27	O=C1C(=O)N(Cc2ccccc2)c2ccc(Cl)cc21 [HDYB-19]	
12	16	Cc1ccc(Cl)cc1N1C(=O)C=CC1=O [HDYB-12, 1-(5-chloro-2-methylphenyl)-1H-pyrrole-2,5-dione]	
6.3	5	O=C1C=CC(=O)N1c1cccc(Cl)c1 [HDYB-1, 1-(3-chlorophenyl)-1H-pyrrole-2,5-dione]	
		COc1ccc(Cl)cc1NC(=O)Nc1nc2c(s1)CN(S(=O)(=O)C1CC1)CC2 [SCAS2_05, 1-(5-chloro-2-methoxyphenyl)-3-(5-(cyclopropylsulfonyl)-4,5,6,7-tetrahydrothiazolo[5,4-c]pyridin-2-yl)urea]	round shape morphology of RBCs ([1]; FIG. 2; 50 μM; compared to normoxic conditions and control drug 5 mM 5-HMF): fully restore round shape morphology; prevention of sickling of RBCs from sickle cells patients ([1]; FIG. 2; dose response): dose dependently prevent sickling; EC50 [3]: 2.25 µM
12	20	O=C1C=CC(=O)N1c1ccc(Br)cc1Cl [HDYB-6, 1-(4-bromo-2-chlorophenyl)-1H-pyrrole-2,5-dione]	

Compound	EC50 [1, 4] [µM]	EC50 [2] [µM]	other results
O=C1C=CC(=O)N1c1ccc(-c2ccccc2)cc1 [HDYB-23, 1-([1,1′-biphenyl]-4-yl)-1H-pyrrole-2,5-dione]		68	EC50 ([1]; Homo sapiens, read-out: Anti-sickling activity (EC50; μM) Human RBC): 52 µM
